# Reference: article PMC8921064 (Archives of Toxicology, 2022)
# “And” between values parts separate entries of the source, which are not always exact repeats. Equal values may be shown once.
# Legend:
# [1] = system: human liver microsomes (HLM); test: Human liver microsomal incubation, metabolite formation quantified by UPLC; conditions: HLM
# Description: (§1) The incubation mixtures were prepared and incubated in glass vials to avoid plastic binding of the substrates. The glass vials were capped to prevent substrate loss due to volatility. After preincubation of the incubation mixture at 37 °C for 1 min, the enzymatic reaction was initiated by adding microsomes to the incubation mixture which was subsequently incubated at 37 °C for 20 min. The reaction was terminated by adding 100 µl ice-cold acetonitrile followed by vortexing. After 5 min centrifugation at 5000 rpm (4000 × g), 4 °C, the supernatant was collected for ultraperformance liquid chromatography (UPLC) analysis. […] Therefore, a diisopropylether (DIPE) extraction of the metabolites was performed after the reaction was stopped by the addition of 20 µl 10% HClO4. To this end, the incubation mixture (total volume of 220 µl) was extracted three times with 1 ml DIPE. Each time, the upper organic layer was collected and the DIPE was subsequently evaporated from the combined organic fractions with a gentle stream of nitrogen. The residues were dissolved in 100 µl methanol and analyzed by UPLC.
# (§2) The metabolites formed were analyzed and quantified using an Acquity UPLC system equipped with a photodiode array (PDA) detector (Waters, Milford, MA). The metabolites and their parent compound were separated on a reverse phase Acquity UPLC® BEH C18 column ([…], 1.7 µm, Waters, Milford, MA) and detected at wavelengths ranging from 190 to 400 nm. Eluent A was nano-pure water containing 0.1% trifluoroacetic acid (v/v), and eluent B was acetonitrile containing 0.1% trifluoroacetic acid (v/v). The gradient elution started from 90% A and 10% B applied from 0.0 min to 0.5 min, which was changed to 0% A and 100% B from 0.5 to 15.5 min and then kept at 0% A and 100% B from 15.5 min to 18.5 min, changed back to 90% A and 10% B from 18.5 to 18.6 min and then maintained at the starting conditions from 18.6 min until 22 min. The total run time was 22 min using a flow rate of 0.6 ml/min. The temperature of the column was set at 40 °C and that of the autosampler at 10 °C during the UPLC analysis. The injection volume was 3.5 µl. Metabolites were quantified using their peak area at the wavelength specified in Table 1, using calibration curves of available reference compounds. Metabolites were identified by comparing their retention time (RT) and UV spectrum to those of reference chemicals on UPLC. When reference chemicals were not available, metabolite identification by gas chromatography-triple quadrupole mass spectrometry (GC–MS/MS) was performed. The minor metabolites were identified by elution time and mass spectra both on UPLC and GC–MS/MS, and by comparison with available elution and spectral information from the literature.
# (§3) The metabolite concentrations in the microsomal incubation mixtures as quantified by UPLC were used to calculate the rate of the enzymatic conversions in pmol/min/mg microsomal protein. The kinetic parameters KM and Vmax were obtained using a nonlinear regression curve fit applying the Michaelis Menten equation in GraphPad Prism 5 (San Diego, USA). To compare the catalytic efficiency of formation of the different metabolites the intrinsic clearance (Clint) was calculated as Vmax divided by KM.
# [2] = system: rat liver microsomes (RLM); test: Rat liver microsomal incubation, metabolite formation quantified by UPLC; conditions: RLM
# Description: as §1, §2, §3
# [3] = system: Salmonella typhimurium TA100; test: Reverse mutation assay (Ames test), TA100; conditions: positive control, 650 µg/plate MMS; mean ± SD of 3 plates
# Description: (§4) Six concentrations of each compound were tested in triplicate in the absence and presence of 5% (v/v) S9-mix prepared from the livers of Aroclor 1254 treated Sprague–Dawley rats. The S9-mix contained 4 mM NADP, 5.8 mM glucose-6-phosphate, 0.1 M sodium phosphate pH 7.4, 8 mM MgCl2, 33 mM KCl and 5% S9 homogenate. Fresh bacterial cultures were prepared overnight to reach 10^9 cells/ml. The following solutions were pre-incubated in a rotating incubator at 70 rpm and 37 °C, and contained either 0.5 ml S9-mix (in case of S9 presence) or 0.5 ml 0.1 M potassium phosphate pH 7.4 (in case of S9 absence), 0.1 ml of a fresh bacterial culture (10^9 cells/ml) of TA98 or TA100, and 10–100 µg test compound. Top agar was melted and heated to 45 °C. After preincubation, the substrate solutions were added to 3 ml of the molten top agar and mixed by vortexing and the top agar mixture was poured onto a minimal glucose agar plate. After solidification of the top agar, the plates were incubated at 37 °C for 48 h. The number of revertant colonies per plate was automatically counted with the Instem Sorcerer Colony Counter (Staffordshire, UK). In the absence of S9-mix, 2-nitrofluorene (NF) and methylmethanesulfonate (MMS) were tested as positive controls for incubations with TA98 and TA100, respectively. In the presence of S9-mix, 2-aminoanthracene (2AA) was tested as a positive control in both TA98 and TA100. DMSO was tested as a solvent control in both tester strains.
# [4] = system: Salmonella typhimurium TA98; test: Reverse mutation assay (Ames test), TA98; conditions: positive control, 10 µg/plate NF; mean ± SD of 3 plates
# Description: as §4, with “and 10–100 µg test compound.” left out
# [5] = 0 to 600 μM, 20 min, NM = no metabolism
# [6] = substrate 1-N-hexylphenanthrene
# [7] = substrate 10-Methyl-9-ethylphenanthrene
smiles,measurement,setting,value
"CCCCCCCCCCCCc1cccc2c1ccc1ccccc12 [1-N-dodecylphenanthrene, 1-n-dodecylphenanthrene]",Metabolic conversion (metabolites formed),[1]; [5],No metabolic conversion was observed
same,Metabolic conversion (metabolites formed),[2]; [5],No metabolic conversion was observed
"CCCCCCc1cccc2c1ccc1ccccc12 [1-N-hexylphenanthrene, 1-n-Hexylphenanthrene]","Vmax, formation of 1-Hydroxyhexyl-phenanthrene RT = 8.45 min",[1]; [6],48.3 ± 6.1 pmol/min/mg microsomal protein
same,"Vmax, formation of 1-Hydroxyhexyl-phenanthrene RT = 8.82 min",[1]; [6],44.2 ± 4.8 pmol/min/mg microsomal protein
same,"Vmax, formation of 1-Hydroxyhexyl-phenanthrene RT = 8.45 min",[2]; [6],103.4 ± 18.1 pmol/min/mg microsomal protein
same,"Vmax, formation of 1-Hydroxyhexyl-phenanthrene RT = 8.58 min",[2]; [6],54.8 ± 5.2 pmol/min/mg microsomal protein
same,"Vmax, formation of 1-Hydroxyhexyl-phenanthrene RT = 8.82 min",[2]; [6],25.6 ± 1.8 pmol/min/mg microsomal protein
same,"Vmax, formation of 1-Hydroxyhexyl-phenanthrene RT = 9.13 min",[2]; [6],11.7 ± 0.9 pmol/min/mg microsomal protein
CCc1ccc2c(ccc3ccccc32)c1 [2-Ethylphenanthrene],"Vmax, formation of 2-(1-Hydroxyethyl)-phenanthrene RT = 6.21 min",[1]; substrate 2-Ethylphenanthrene,468.8 ± 50.3 pmol/min/mg microsomal protein
same,"Vmax, formation of Dihydro-2-ethylphenanthrene-diol RT = 5.16 min",[1]; substrate 2-Ethylphenanthrene,18.4 ± 3.2 pmol/min/mg microsomal protein
same,"Vmax, formation of Dihydro-2-ethylphenanthrene-diol RT = 5.29 min",[1]; substrate 2-Ethylphenanthrene,22.1 ± 3.0 pmol/min/mg microsomal protein
same,"Vmax, formation of Unknown metabolite RT = 9.38 min",[1]; substrate 2-Ethylphenanthrene,37.2 ± 6.5 pmol/min/mg microsomal protein
same,"Vmax, formation of 2-(1-Hydroxyethyl)-phenanthrene RT = 6.21 min",[2]; substrate 2-Ethylphenanthrene,3149.0 ± 266.1 pmol/min/mg microsomal protein
same,"Vmax, formation of 2-Ethylphenanthrol RT = 7.57 min",[2]; substrate 2-Ethylphenanthrene,16.5 ± 3.1 pmol/min/mg microsomal protein
same,"Vmax, formation of 2-Ethylphenanthrol RT = 7.74 min",[2]; substrate 2-Ethylphenanthrene,16.6 ± 2.7 pmol/min/mg microsomal protein
same,"Vmax, formation of 2-Ethylphenanthrol RT = 7.89 min",[2]; substrate 2-Ethylphenanthrene,11.8 ± 2.4 pmol/min/mg microsomal protein
same,"Vmax, formation of Dihydro-2-ethylphenanthrene-diol RT = 4.6 min",[2]; substrate 2-Ethylphenanthrene,33.9 ± 11.8 pmol/min/mg microsomal protein
same,"Vmax, formation of Dihydro-2-ethylphenanthrene-diol RT = 5.29 min",[2]; substrate 2-Ethylphenanthrene,42.9 ± 3.5 pmol/min/mg microsomal protein
same,"Vmax, formation of Unknown metabolite RT = 9.38 min",[2]; substrate 2-Ethylphenanthrene,238.0 ± 23.9 pmol/min/mg microsomal protein
CCc1cc2ccccc2c2ccccc12 [9-Ethylphenanthrene],"Vmax, formation of 9-(1-Hydroxyethyl)-phenanthrene RT = 6.20 min",[1]; substrate 9-Ethylphenanthrene,267.7 ± 17.4 pmol/min/mg microsomal protein
same,"Vmax, formation of 9-(2-Hydroxyethyl)-phenanthrene RT = 6.00 min",[1]; substrate 9-Ethylphenanthrene,61.4 ± 3.3 pmol/min/mg microsomal protein
same,"Vmax, formation of 9-Ethylphenanthrol RT = 7.42 min",[1]; substrate 9-Ethylphenanthrene,12.8 ± 1.1 pmol/min/mg microsomal protein
same,"Vmax, formation of 9-Ethylphenanthrol RT = 7.58 min",[1]; substrate 9-Ethylphenanthrene,29.1 ± 2.8 pmol/min/mg microsomal protein
same,"Vmax, formation of Dihydro-9-ethylphenanthrene-diol RT = 3.81 min",[1]; substrate 9-Ethylphenanthrene,15.2 ± 0.8 pmol/min/mg microsomal protein
same,"Vmax, formation of Dihydro-9-ethylphenanthrene-diol RT = 3.88 min",[1]; substrate 9-Ethylphenanthrene,23.5 ± 1.4 pmol/min/mg microsomal protein
same,"Vmax, formation of 9-(1-Hydroxyethyl)-phenanthrene RT = 6.20 min",[2]; substrate 9-Ethylphenanthrene,1206 ± 47.9 pmol/min/mg microsomal protein
same,"Vmax, formation of 9-(2-Hydroxyethyl)-phenanthrene RT = 6.00 min",[2]; substrate 9-Ethylphenanthrene,37.0 ± 2.26 pmol/min/mg microsomal protein
same,"Vmax, formation of 9-Ethylphenanthrol RT = 7.42 min",[2]; substrate 9-Ethylphenanthrene,29.7 ± 3.1 pmol/min/mg microsomal protein
same,"Vmax, formation of 9-Ethylphenanthrol RT = 7.58 min",[2]; substrate 9-Ethylphenanthrene,56.6 ± 1.8 pmol/min/mg microsomal protein
same,"Vmax, formation of 9-Ethylphenanthrol RT = 7.93 min",[2]; substrate 9-Ethylphenanthrene,22.8 ± 1.8 pmol/min/mg microsomal protein
same,"Vmax, formation of Dihydro-9-ethylphenanthrene-diol RT = 3.81 min",[2]; substrate 9-Ethylphenanthrene,12.0 ± 2.1 pmol/min/mg microsomal protein
same,"Vmax, formation of Unknown metabolite RT = 9.35 min",[2]; substrate 9-Ethylphenanthrene,52.7 ± 6.2 pmol/min/mg microsomal protein
CCc1c(C)c2ccccc2c2ccccc12 [10-Methyl-9-ethylphenanthrene],"Vmax, formation of 9-(1-Hydroxyethyl)-10-methylphenanthrene RT = 6.65 min",[1]; [7],187.1 ± 45.2 pmol/min/mg microsomal protein
same,"Vmax, formation of 9-(2-Hydroxyethyl)-10-methylphenanthrene RT = 6.5 min",[1]; [7],12.9 ± 1.8 pmol/min/mg microsomal protein
same,"Vmax, formation of 9-Ethyl-10-(1-hydroxymethyl)-phenanthrene RT = 6.90 min",[1]; [7],85.9 ± 17.4 pmol/min/mg microsomal protein
same,"Vmax, formation of Dihydro-10-methyl-9-ethylphenanthrene-diol RT = 4.29 min",[1]; [7],7.2 ± 1.7 pmol/min/mg microsomal protein
same,"Vmax, formation of Dihydro-10-methyl-9-ethylphenanthrene-diol RT = 4.34 min",[1]; [7],10.5 ± 2.5 pmol/min/mg microsomal protein
same,"Vmax, formation of 9-(1-Hydroxyethyl)-10-methylphenanthrene RT = 6.65 min",[2]; [7],630.2 ± 81.4 pmol/min/mg microsomal protein
same,"Vmax, formation of 9-(2-Hydroxyethyl)-10-methylphenanthrene RT = 6.5 min",[2]; [7],21.0 ± 3.1 pmol/min/mg microsomal protein
same,"Vmax, formation of 9-Ethyl-10-(1-hydroxymethyl)-phenanthrene RT = 6.90 min",[2]; [7],85.8 ± 11.6 pmol/min/mg microsomal protein
same,"Vmax, formation of 9-Ethyl-10-methylphenanthrol RT = 7.82 min",[2]; [7],65.6 ± 9.8 pmol/min/mg microsomal protein
same,"Vmax, formation of 9-Ethyl-10-methylphenanthrol RT = 8.3 min",[2]; [7],29.4 ± 7.7 pmol/min/mg microsomal protein
same,"Vmax, formation of Dihydro-10-methyl-9-ethylphenanthrene-diol RT = 4.29 min",[2]; [7],6.4 ± 2.7 pmol/min/mg microsomal protein
same,"Vmax, formation of Dihydro-10-methyl-9-ethylphenanthrene-diol RT = 4.34 min",[2]; [7],8.09 ± 1.6 pmol/min/mg microsomal protein
"COS(C)(=O)=O [MMS, methylmethanesulfonate, reference compound]",His + revertant colonies TA100 without S9-mix,[3],868±70 and 823±58 and 783±46
"O=[N+]([O-])c1ccc2c(c1)Cc1ccccc1-2 [NF, 2-nitrofluorene, reference compound]",His + revertant colonies TA98 without S9-mix,[4],1590±295
